# Reference: ChEMBL document CHEMBL3763041, “Design and synthesis of new imidazo[1,2-a]pyridine and imidazo[1,2-a]pyrazine derivatives with antiproliferative activity against melanoma cells” (Eur J Med Chem, 2016)
# Test: Antiproliferative activity against human A375P cells expressing BRAF V600E mutant after 72 hrs by CellTiter-Glo assay
# Assay type: functional, cell-based
row,SMILES,IC50
1,Cc1cc(C)cc(C(=O)Nc2cccc(-c3cnc4c(NC(=O)c5ccccc5)cccn34)c2)c1,> 30000 nM
2,Cc1ccc(C(=O)Nc2cccc(-c3cnc4c(N)nccn34)c2)cc1Cl,2270 nM
3,Nc1nccn2c(-c3cccc(NC(=O)c4cc(Cl)c(F)c(Cl)c4)c3)cnc12,4090 nM
4,Nc1nccn2c(-c3cccc(NC(=O)Nc4ccc(F)c(Cl)c4)c3)cnc12,4340 nM
5,Nc1nccn2c(-c3cccc(NC(=O)c4ccc(Cl)c(C(F)(F)F)c4)c3)cnc12,1410 nM
6,Nc1nccn2c(-c3cccc(NC(=O)Nc4ccc(F)cc4F)c3)cnc12,920 nM
7,COc1cc(C(=O)Nc2cccc(-c3cnc4c(N)nccn34)c2)cc(OC)c1OC,1540 nM
8,Nc1nccn2c(-c3cccc(NC(=O)c4ccc(C(F)(F)F)cc4)c3)cnc12,7040 nM
9,O=C(Nc1cccc(-c2cnc3c(NC(=O)c4ccccc4)nccn23)c1)c1ccc(Cl)c(C(F)(F)F)c1,1820 nM
10,Cc1ccc(C(=O)Nc2cccc(-c3cnc4c(NC(=O)c5ccccc5)cccn34)c2)cc1Cl,7070 nM
11,Nc1nccn2c(-c3cccc(NC(=O)Nc4cc(C(F)(F)F)cc(C(F)(F)F)c4)c3)cnc12,9060 nM
12,O=C(Nc1cccc(Cl)c1)Nc1cccc(-c2cnc3c(NC(=O)c4ccccc4)cccn23)c1,7360 nM
13,O=C(Nc1cccc(-c2cnc3c(NC(=O)c4cc(C(F)(F)F)cc(C(F)(F)F)c4)nccn23)c1)c1ccc(Cl)c(C(F)(F)F)c1,550 nM
14,Nc1nccn2c(-c3cccc(NC(=O)Nc4cccc(Cl)c4)c3)cnc12,5010 nM
15,O=C(Nc1cccc(-c2cnc3c(NC(=O)c4cccc(OC(F)(F)F)c4)nccn23)c1)c1ccc(F)c(Cl)c1,1500 nM
16,O=C(Nc1cccc(-c2cnc3c(NC(=O)c4ccccc4)cccn23)c1)c1ccc(C(F)(F)F)cc1,1700 nM
17,O=C(Nc1cccc(-c2cnc3c(NC(=O)c4ccccc4)cccn23)c1)c1ccc(Br)cc1,6350 nM
18,O=C(Nc1cccc(-c2cnc3c(NC(=O)c4ccc(Cl)c(C(F)(F)F)c4)nccn23)c1)c1ccc(F)c(Cl)c1,1080 nM
19,O=C(Nc1cccc(-c2cnc3c(NC(=O)c4cc(F)cc(F)c4)nccn23)c1)c1ccc(Cl)c(C(F)(F)F)c1,1620 nM
20,O=C(Nc1cccc(-c2cnc3c(NC(=O)c4ccc(Cl)c(Cl)c4)nccn23)c1)c1ccc(Cl)c(C(F)(F)F)c1,660 nM
21,O=C(Nc1cccc(-c2cnc3c(NC(=O)c4ccccc4)cccn23)c1)c1ccc(OC(F)(F)F)cc1,21300 nM
22,Nc1nccn2c(-c3cccc(NC(=O)c4ccc(F)cc4F)c3)cnc12,7260 nM

row,SMILES,IC50
1,Cc1cc(C)cc(C(=O)Nc2cccc(-c3cnc4c(N)nccn34)c2)c1,820 nM
2,O=C(Nc1cccc(-c2cnc3c(NC(=O)c4ccc(F)c(C(F)(F)F)c4)nccn23)c1)c1ccc(Cl)c(C(F)(F)F)c1,460 nM
3,O=C(Nc1cccc(-c2cnc3c(NC(=O)c4ccccc4)cccn23)c1)c1ccc(F)c(C(F)(F)F)c1,> 30000 nM
4,O=C(Nc1cccn2c(-c3cccc(NC(=O)c4cccc(Cl)c4Cl)c3)cnc12)c1ccccc1,> 30000 nM
5,COc1ccc(C(=O)Nc2cccc(-c3cnc4c(NC(=O)c5ccccc5)cccn34)c2)cc1OC,9470 nM
6,Nc1nccn2c(-c3cccc(NC(=O)Nc4ccc(Cl)c(C(F)(F)F)c4)c3)cnc12,11200 nM
7,O=C(Nc1cccc(-c2cnc3c(NC(=O)c4ccc(Br)cc4)nccn23)c1)c1ccc(F)c(Cl)c1,490 nM
8,O=C(Nc1cccc(-c2cnc3c(NC(=O)c4cccc(OC(F)(F)F)c4)nccn23)c1)c1ccc(Cl)c(C(F)(F)F)c1,1030 nM
9,Nc1nccn2c(-c3cccc(NC(=O)c4cccc(C(F)(F)F)c4)c3)cnc12,2080 nM
10,O=C(Nc1cccc(-c2cnc3c(NC(=O)c4cc(Cl)c(F)c(Cl)c4)nccn23)c1)c1ccc(Cl)c(C(F)(F)F)c1,> 30000 nM
11,O=C(Nc1cccc(-c2cnc3c(NC(=O)c4ccccc4)nccn23)c1)c1ccc(F)c(Cl)c1,1160 nM
12,COc1ccc(C(=O)Nc2cccc(-c3cnc4c(N)nccn34)c2)cc1OC,3840 nM
13,Nc1nccn2c(-c3cccc(NC(=O)Nc4cccc(Cl)c4Cl)c3)cnc12,1270 nM
14,O=C(Nc1cccc(-c2cnc3c(NC(=O)c4ccccc4)cccn23)c1)c1ccc(F)c(Cl)c1,8040 nM
15,O=C(Nc1ccc(C(F)(F)F)cc1)Nc1cccc(-c2cnc3c(NC(=O)c4ccccc4)cccn23)c1,3010 nM
16,O=C(Nc1cccc(-c2cnc3c(NC(=O)c4cc(Cl)c(F)c(Cl)c4)nccn23)c1)c1ccc(F)c(Cl)c1,1290 nM
17,O=C(Nc1cccc(-c2cnc3c(NC(=O)c4ccccc4)cccn23)c1)Nc1cccc(C(F)(F)F)c1,4290 nM
18,O=C(Nc1cccc(-c2cnc3c(NC(=O)c4cc(F)cc(F)c4)nccn23)c1)c1ccc(F)c(Cl)c1,450 nM
19,Nc1nccn2c(-c3cccc(NC(=O)c4ccccc4)c3)cnc12,850 nM
20,O=C(Nc1cccc(-c2cnc3c(NC(=O)c4ccccc4)cccn23)c1)c1cc(Cl)c(F)c(Cl)c1,7340 nM
21,O=C(Nc1cccc(-c2cnc3c(NC(=O)c4ccccc4)cccn23)c1)Nc1ccc(Cl)c(Cl)c1,4460 nM
22,Nc1nccn2c(-c3cccc(NC(=O)c4cccc(Cl)c4Cl)c3)cnc12,640 nM

row,SMILES,IC50
1,O=C(Nc1cccc(-c2cnc3c(NC(=O)c4ccc(C(F)(F)F)cc4)nccn23)c1)c1ccc(F)c(Cl)c1,560 nM
2,Cc1ccc(NC(=O)Nc2cccc(-c3cnc4c(N)nccn34)c2)cc1,2700 nM
3,O=C(Nc1cccc(-c2cnc3c(NC(=O)c4ccccc4)cccn23)c1)c1ccc(Cl)c(C(F)(F)F)c1,> 30000 nM
4,Nc1nccn2c(-c3cccc(NC(=O)c4ccc(F)c(Cl)c4)c3)cnc12,340 nM
5,O=C(Nc1cccc(-c2cnc3c(NC(=O)c4cccc(C(F)(F)F)c4)nccn23)c1)c1ccc(Cl)c(C(F)(F)F)c1,12700 nM
6,O=C(Nc1cccc(-c2cnc3c(NC(=O)c4ccc(F)c(Cl)c4)nccn23)c1)c1ccc(F)c(Cl)c1,890 nM
7,O=C(Nc1cccc(-c2cnc3c(NC(=O)c4ccccc4)cccn23)c1)c1ccccc1,> 30000 nM
8,Cc1ccc(C(=O)Nc2nccn3c(-c4cccc(NC(=O)c5ccc(Cl)c(C(F)(F)F)c5)c4)cnc23)cc1Cl,2790 nM
9,Nc1nccn2c(-c3cccc(NC(=O)c4ccc(Cl)c(Cl)c4)c3)cnc12,1210 nM
10,O=C(Nc1cccc(-c2cnc3c(NC(=O)c4ccc(Cl)c(Cl)c4)nccn23)c1)c1ccc(F)c(Cl)c1,900 nM
11,O=C(Nc1cccc(-c2cnc3c(NC(=O)c4ccccc4)cccn23)c1)Nc1cc(C(F)(F)F)cc(C(F)(F)F)c1,2080 nM
12,O=C(Nc1cccc(-c2cnc3c(NC(=O)c4ccccc4)cccn23)c1)c1cccc(OC(F)(F)F)c1,> 30000 nM
13,O=C(Nc1cccc(-c2cnc3c(NC(=O)c4cc(Cl)cc(Cl)c4)nccn23)c1)c1ccc(F)c(Cl)c1,1150 nM
14,Nc1nccn2c(-c3cccc(NC(=O)Nc4ccc(C(F)(F)F)cc4)c3)cnc12,1100 nM
15,O=C(Nc1cccc(-c2cnc3c(NC(=O)c4cccc(C(F)(F)F)c4)nccn23)c1)c1ccc(F)c(Cl)c1,1080 nM
16,O=C(Nc1cccc(-c2cnc3c(NC(=O)c4ccccc4)cccn23)c1)Nc1cccc(Cl)c1Cl,15900 nM
17,Nc1nccn2c(-c3cccc(NC(=O)c4ccc(F)c(C(F)(F)F)c4)c3)cnc12,2130 nM
18,Nc1nccn2c(-c3cccc(NC(=O)Nc4ccc(Br)cc4)c3)cnc12,4640 nM
19,O=C(Nc1cccc(-c2cnc3c(NC(=O)c4ccccc4)cccn23)c1)c1cccc(C(F)(F)F)c1,> 30000 nM
20,O=C(Nc1cccc(-c2cnc3c(NC(=O)c4ccc(Cl)c(C(F)(F)F)c4)nccn23)c1)c1ccc(Cl)c(C(F)(F)F)c1,2460 nM
21,Nc1nccn2c(-c3cccc(NC(=O)c4ccc(OC(F)(F)F)cc4)c3)cnc12,430 nM
22,Nc1nccn2c(-c3cccc(NC(=O)Nc4ccccc4)c3)cnc12,1140 nM

row,SMILES,IC50
1,Cc1ccc(C)c(C(=O)Nc2cccc(-c3cnc4c(NC(=O)c5ccccc5)cccn34)c2)c1,> 30000 nM
2,O=C(Nc1cccc(-c2cnc3c(NC(=O)c4ccccc4)cccn23)c1)c1cc(F)cc(F)c1,7940 nM
3,Nc1nccn2c(-c3cccc(NC(=O)c4cc(Cl)cc(Cl)c4)c3)cnc12,2940 nM
4,Nc1nccn2c(-c3cccc(NC(=O)c4ccc(Br)cc4)c3)cnc12,750 nM
5,O=C(Nc1cccc(-c2cnc3c(NC(=O)c4cc(C(F)(F)F)cc(C(F)(F)F)c4)nccn23)c1)c1ccc(F)c(Cl)c1,1160 nM
6,Cc1cc(C)cc(C(=O)Nc2nccn3c(-c4cccc(NC(=O)c5ccc(Cl)c(C(F)(F)F)c5)c4)cnc23)c1,180 nM
7,Cc1ccc(C)c(C(=O)Nc2cccc(-c3cnc4c(N)nccn34)c2)c1,2730 nM
8,O=C(Nc1cccc(-c2cnc3c(NC(=O)c4cccc(Cl)c4Cl)nccn23)c1)c1ccc(F)c(Cl)c1,23300 nM
9,O=C(Nc1cccc(-c2cnc3c(NC(=O)c4ccc(OC(F)(F)F)cc4)nccn23)c1)c1ccc(F)c(Cl)c1,440 nM
10,Nc1nccn2c(-c3cccc(NC(=O)Nc4cccc(C(F)(F)F)c4)c3)cnc12,5230 nM
11,O=C(Nc1cccc(-c2cnc3c(NC(=O)c4ccccc4)cccn23)c1)Nc1ccc(Cl)c(C(F)(F)F)c1,2320 nM
12,Cc1ccc(C(=O)Nc2nccn3c(-c4cccc(NC(=O)c5ccc(F)c(Cl)c5)c4)cnc23)cc1Cl,980 nM
13,O=C(Nc1cccc(-c2cnc3c(NC(=O)c4ccc(Br)cc4)nccn23)c1)c1ccc(Cl)c(C(F)(F)F)c1,1800 nM
14,Nc1nccn2c(-c3cccc(NC(=O)c4cc(F)cc(F)c4)c3)cnc12,460 nM
15,Nc1nccn2c(-c3cccc(NC(=O)c4cc(C(F)(F)F)cc(C(F)(F)F)c4)c3)cnc12,8320 nM
16,O=C(Nc1cccc(-c2cnc3c(NC(=O)c4ccc(OC(F)(F)F)cc4)nccn23)c1)c1ccc(Cl)c(C(F)(F)F)c1,1310 nM
17,O=C(Nc1cccc(-c2cnc3c(NC(=O)c4ccc(F)c(C(F)(F)F)c4)nccn23)c1)c1ccc(F)c(Cl)c1,1140 nM
18,Nc1nccn2c(-c3cccc(NC(=O)c4cccc(OC(F)(F)F)c4)c3)cnc12,13800 nM
19,O=C(Nc1cccc(-c2cnc3c(NC(=O)c4ccc(C(F)(F)F)cc4)nccn23)c1)c1ccc(Cl)c(C(F)(F)F)c1,1600 nM
20,COc1cccc(C(=O)Nc2cccc(-c3cnc4c(N)nccn34)c2)c1C,10100 nM
21,O=C(Nc1cccc(-c2cnc3c(NC(=O)c4ccc(F)c(Cl)c4)nccn23)c1)c1ccc(Cl)c(C(F)(F)F)c1,2860 nM
22,Cc1cc(C)cc(C(=O)Nc2nccn3c(-c4cccc(NC(=O)c5ccc(F)c(Cl)c5)c4)cnc23)c1,1640 nM
